Measurements: patent US20160278348A1, “METHOD FOR CONTROLLING WATER MOLDS IN AQUACULTURE WATER” (SUKEGAWA CHEMICALS CO., LTD., priority 2014, published 2016)

Experiments:
[1] = test system: water molds (genus Saprolegnia); experiment: Experiment 2: water mold culture on hempseed cotyledons, sensitized time 60 min; type: cell-based
[2] = test system: water molds (genus Saprolegnia); experiment: Experiment 1: water mold culture on hempseed cotyledons, sensitized time 30 min; type: cell-based; settings: 100 ppm; sensitized 30 min
Experimental: Based on “Testing Methods for City Water (2001 edition) by Japan Water Works Association, VIII Microbial Tests, 4.4.2.2 Water Mold Culture Method”, one hempseed cotyledon with water molds and 300 mL of sterilized tap water were placed in a sterilized 500-mL conical flask, and then 5 sterilized hempseed cotyledons were placed in the conical flask and cultured at ordinary temperature. The water molds (genus Saprolegnia) were collected from a hatchery in a fish farm for salmons and trout. […] The water in fee conical flask was diluted with sterilized tap water to prepare a zoospore suspension containing 10 to 12 zoospores of the water molds per 100 μL. It is to be noted that the tap water used was city water (pH 6.0) in Kobe.
The zoospore suspension was added to a sterilized tube (5 mL capacity) containing 3 hempseed cotyledons and stirred, and was then allowed to stand at room temperature for 3 days. After 3 days, 900 μL of a chemical solution was added to the sterilized tube, and the resulting mixture was stirred and then allowed to stand for 30 minutes for sensitization. […]
Based on the results of the observation, the minimum killing concentration of an active ingredient contained in the chemical solution was determined. […]

Q: What does the source list for `O=[N+]([O-])C(Br)(CO)CO` [bronopol]?
A: Haze ([1]; 100 ppm, sensitized 60 min): no effect; Zoospores ([1]; 100 ppm, sensitized 60 min): effective; Haze ([1]; 1200 ppm, sensitized 60 min): could not be prevented; Haze [2]: no effect; Zoospores [2]: effective

Q: How did the minimum killing concentration ([1]; sensitized time 60 minutes, as chlorine dioxide) turn out when sodium chlorite was run?
A: 2.5 ppm
